These results are taken from patent US7781591B2, “Substituted 3-cyanopyridines as protein kinase inhibitors” (Wyeth LLC, priority 2006, dated 2010).

For this test, the target named is T1, human PKCθ full length enzyme (Homo sapiens, UniProt Q04759).
T1 construct: human PKCθ full length enzyme (Panvera Cat# P2996); purchased Panvera P2996
T1 sequence (Q04759 whole entry): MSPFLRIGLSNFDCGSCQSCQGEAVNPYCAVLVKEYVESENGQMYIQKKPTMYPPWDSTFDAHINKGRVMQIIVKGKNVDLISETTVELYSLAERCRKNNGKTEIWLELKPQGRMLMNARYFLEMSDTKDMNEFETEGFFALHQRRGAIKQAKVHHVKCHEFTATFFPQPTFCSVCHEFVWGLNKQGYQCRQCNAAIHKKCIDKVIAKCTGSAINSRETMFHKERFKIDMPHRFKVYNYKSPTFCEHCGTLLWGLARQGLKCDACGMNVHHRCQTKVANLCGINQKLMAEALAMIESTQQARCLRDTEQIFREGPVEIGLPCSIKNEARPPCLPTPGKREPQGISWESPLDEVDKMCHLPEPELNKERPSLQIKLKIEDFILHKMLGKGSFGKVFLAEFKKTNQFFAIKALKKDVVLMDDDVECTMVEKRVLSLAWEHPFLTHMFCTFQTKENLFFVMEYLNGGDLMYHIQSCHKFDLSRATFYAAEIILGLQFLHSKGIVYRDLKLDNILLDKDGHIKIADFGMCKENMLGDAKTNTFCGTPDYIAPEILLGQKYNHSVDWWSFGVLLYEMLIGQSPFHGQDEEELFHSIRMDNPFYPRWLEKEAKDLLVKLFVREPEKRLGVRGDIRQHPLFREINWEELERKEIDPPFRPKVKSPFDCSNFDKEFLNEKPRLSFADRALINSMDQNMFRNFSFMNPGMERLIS
Briefly: PKCθ IMAP assay (fluorescence polarization). Type of test: biochemical. As to conditions: human PKCθ full length enzyme, IMAP; average value; read-out: IC50 PKCθ IMAP. The protocol: The reaction buffer was prepared by diluting the 5× stock reaction buffer and adding DTT to obtain a concentration of 3.0 mM. […] The final concentration of compound was 2× and 10% DMSO. DMSO was added to the rest of the master mix to increase the concentration to 10%. 10 μl of the master mix containing 10% DMSO was added to the rest of the wells on the plate except the 2nd column. 20 μl was transferred from the first column to the 2nd column. The compounds were serially diluted in 2:1 ratio starting from the 2nd column. A 2× ([…]) PKCθ solution was made in the reaction buffer. 10 μl of the PKCθ solution was added to every well to achieve these final concentrations: PKCθ—1 nM; ATP—6 μM; peptide—100 nM; DMSO—5%. Samples were incubated for 25 minutes at room temperature. The binding reagent was prepared by diluting the beads in 1× binding buffer to 800:1. 50 μl of the binding reagent was added to every well and incubated for 20 minutes. FP was measured using Envision2100 (PerkinElmer Life Sciences). Wells with no ATPs and wells with no enzymes were used as controls.
(Polarisation of emitted light reports the rotation of a fluorescent probe.)
One may read the IC50 as the concentration at which inhibition is half-maximal. In the case of `N#Cc1cncc(-c2cc3cc(CNCc4cccnc4)ccc3s2)c1Nc1cccc2[nH]ccc12` [Compound 289, 4-(1H-indol-4-ylamino)-5-(5-{[(pyridin-3-ylmethyl)amino]methyl}-1-benzothien-2-yl)nicotinonitrile], the IC50 was found to be 4 nM.
Then `N#Cc1cncc(-c2cccc(-c3ccc(C(=O)NCc4ccccn4)cc3)c2)c1Nc1ccc2[nH]ccc2c1` [Compound 212, 3′-[5-cyano-4-(1H-indol-5-ylamino)pyridin-3-yl]-N-(pyridin-2-ylmethyl)biphenyl-4-carboxamide], with 590 nM; and `Cc1c(Nc2c(C#N)cncc2-c2ccc(OCCN3CCOCC3)cc2)ccc2[nH]ccc12` [Compound 351, 4-[(4-methyl-1H-indol-5-yl)amino]-5-[4-(2-morpholin-4-ylethoxy)phenyl]nicotinonitrile], with 20 nM.
In the case of `CCN1CCN(Cc2ccc3oc(-c4cncc(C#N)c4Nc4ccc5[nH]ccc5c4C)cc3c2)CC1` [Compound 553, 5-{5-[(4-ethylpiperazin-1-yl)methyl]-1-benzofuran-2-yl}-4-[(4-methyl-1H-indol-5-yl)amino]nicotinonitrile], the IC50 was determined as 0.48 nM.
Then `CN(C)S(=O)(=O)c1ccccc1-c1cncc(C#N)c1Nc1cccc2[nH]ccc12` [Compound 316, 2-[5-cyano-4-(1H-indol-4-ylamino)pyridin-3-yl]-N,N-dimethylbenzenesulfonamide], with 1350 nM.
Then `Cc1c(Nc2c(C#N)cncc2-c2oc3ccccc3c2C)ccc2[nH]ccc12` [Compound 466, 5-(3-methyl-1-benzofuran-2-yl)-4-[(4-methyl-1H-indol-5-yl)amino]nicotinonitrile], with 17 nM; and `N#Cc1cncc(-c2cccc(-c3ccc(CN4CCOCC4)s3)c2)c1Nc1ccc2[nH]ccc2c1` [Compound 185, 4-(1H-indol-5-ylamino)-5-{3-[5-(morpholin-4-ylmethyl)-2-thienyl]phenyl}nicotinonitrile], with 500 nM.
In the case of `Cc1c(Nc2c(C#N)cncc2-c2ccc(CN3CCCCC3)o2)ccc2[nH]ccc12` [Compound 402, 4-[(4-methyl-1H-indol-5-yl)amino]-5-[5-(piperidin-1-ylmethyl)-2-furyl]nicotinonitrile], the IC50 turned out to be 41 nM.
Regarding `Cc1c(Nc2c(C#N)cncc2-c2ccc3sccc3c2)ccc2[nH]ccc12` [Compound 594, 5-(benzo[b]thiophen-5-yl)-4-(4-methyl-1H-indol-5-ylamino)nicotinonitrile], the IC50 is 38 nM.
In the case of `N#Cc1cncc(-c2cccc(OCCN3CCCCC3)c2)c1Nc1cccc2[nH]ccc12` [Compound 171, 4-(1H-indol-4-ylamino)-5-[3-(2-piperidin-1-ylethoxy)phenyl]nicotinonitrile], the IC50 worked out at 50 nM.
The same measure for `Cc1c(Nc2c(C#N)cncc2-c2cscn2)ccc2[nH]ccc12` [Compound 543, 4-[(4-methyl-1H-indol-5-yl)amino]-5-(1,3-thiazol-4-yl)nicotinonitrile]: 8 nM; for `COc1ccc(COC(=O)Nc2ccc(-c3cncc(C#N)c3Nc3ccc4[nH]ccc4c3C)cc2F)cc1` [Compound 528, 4-methoxybenzyl (4-{5-cyano-4-[(4-methyl-1H-indol-5-yl)amino]pyridin-3-yl}-2-fluorophenyl)carbamate]: 40 nM.
Then `COc1ccc(-c2cncc(C#N)c2Nc2ccc3ccccc3c2)cc1OC` [Compound 112, 5-(3,4-dimethoxyphenyl)-4-(2-naphthylamino)nicotinonitrile], with 1130 nM.
With “4-[(4-methyl-1H-indol-5-yl)amino]-5-(5-{[(3-phenylpropyl)amino]methyl}-2-furyl)nicotinonitrile [Compound 409]”, the half-inhibitory concentration (IC50) is 27 nM.
Regarding `N#Cc1cncc(-c2cc3cc(CNCCN4CCOCC4)ccc3s2)c1Nc1cccc2[nH]ccc12` [Compound 282, 4-(1H-indol-4-ylamino)-5-(5-{[(2-morpholin-4-ylethyl)amino]methyl}-1-benzothien-2-yl)nicotinonitrile], the half-inhibitory concentration (IC50) is 3 nM.
Then `COc1cccc(-c2cncc(C#N)c2Nc2ccc3[nH]ncc3c2)c1` [Compound 295, 4-(1H-indazol-5-ylamino)-5-(3-methoxyphenyl)nicotinonitrile], with 2950 nM; and `Cc1c(Nc2c(C#N)cncc2-c2ccc(OCCNCCO)cc2)ccc2[nH]ccc12` [Compound 414, 5-(4-{2-[(2-hydroxyethyl)amino]ethoxy}phenyl)-4-[(4-methyl-1H-indol-5-yl)amino]nicotinonitrile], with 4 nM; and “5-(1-benzofuran-3-yl)-4-(1H-indol-4-ylamino)nicotinonitrile [Compound 352]”, with 20 nM.
`Cc1c(Nc2c(C#N)cncc2-c2cc3cc(CN4CCNCC4)ccc3o2)cc(Cl)c2[nH]ccc12` [Compound 547, 4-[(7-chloro-4-methyl-1H-indol-5-yl)amino]-5-[5-(piperazin-1-ylmethyl)-1-benzofuran-2-yl]nicotinonitrile]: the 50% inhibitory concentration (IC50) amounted to 4 nM.
Regarding `Cc1c(Nc2c(C#N)cncc2-c2cc3cc(CN4CCN(CCN(C)C)CC4)ccc3o2)ccc2[nH]ccc12` [Compound 396, 5-[5-({4-[2-(dimethylamino)ethyl]piperazin-1-yl}methyl)-1-benzofuran-2-yl]-4-[(4-methyl-1H-indol-5-yl)amino]nicotinonitrile], the half-maximal inhibitory concentration (IC50) is 2 nM.
In the case of `COCCOc1ccc(-c2cncc(C#N)c2Nc2ccc3[nH]ccc3c2C)cc1OCCOC` [Compound 477, 5-[3,4-bis(2-methoxyethoxy)phenyl]-4-[(4-methyl-1H-indol-5-yl)amino]nicotinonitrile], the IC50 stood at 72 nM.
Then `Cc1c(Nc2c(C#N)cncc2-c2ccc(N(C)C)cc2)ccc2[nH]ccc12` [Compound 574, 5-[4-(dimethylamino)phenyl]-4-[(4-methyl-1H-indol-5-yl)amino]nicotinonitrile], with 15 nM.
The same measure for `Cc1c(Nc2c(C#N)cncc2-c2ccc(OCCN3CCC(N4CCOCC4)CC3)cc2)ccc2[nH]ccc12` [Compound 424, 4-[(4-methyl-1H-indol-5-yl)amino]-5-{4-[2-(4-morpholin-4-ylpiperidin-1-yl)ethoxy]phenyl}nicotinonitrile]: 4 nM.
Then `CCN(CC)CCOc1cc(-c2cncc(C#N)c2Nc2ccc3[nH]ccc3c2)ccc1OC` [Compound 179, 5-{3-[2-(diethylamino)ethoxy]-4-methoxyphenyl}-4-(1H-indol-5-ylamino)nicotinonitrile], with 410 nM; and `Cc1c(Nc2c(C#N)cncc2-c2cncn2C)ccc2[nH]ccc12` [Compound 564, 5-(1-methyl-1H-imidazol-5-yl)-4-[(4-methyl-1H-indol-5-yl)amino]nicotinonitrile], with 98 nM; and `CN(C)Cc1cccc(-c2cncc(C#N)c2Nc2cccc3[nH]ccc23)c1` [Compound 271, 5-{3-[(dimethylamino)methyl]phenyl}-4-(1H-indol-4-ylamino)nicotinonitrile], with 100 nM.
As to `N#Cc1cncc(-c2cc3cc(CN4CCC(CO)CC4)ccc3s2)c1Nc1cccc2[nH]ccc12` [Compound 284, 5-(5-{[4-(hydroxymethyl)piperidin-1-yl]methyl}-1-benzothien-2-yl)-4-(1H-indol-4-ylamino)nicotinonitrile], the IC50 was found to be 4 nM.
Regarding `N#Cc1cncc(-c2cc3cc(CNCCO)ccc3s2)c1Nc1cccc2[nH]ccc12` [Compound 274, 5-(5-{[(2-hydroxyethyl)amino]methyl}-1-benzothien-2-yl)-4-(1H-indol-4-ylamino)nicotinonitrile], the IC50 came to 2 nM.
The same measure for `Cc1c(Nc2c(C#N)cncc2-c2ccc(CN3CCOCC3)cc2)ccc2[nH]ccc12` [Compound 451, 4-[(4-methyl-1H-indol-5-yl)amino]-5-[4-(morpholin-4-ylmethyl)phenyl]nicotinonitrile]: 9 nM; for `N#Cc1cncc(-c2cccc(Br)c2)c1Nc1cccc2c1CC(=O)N2` [Compound 346, 5-(3-bromophenyl)-4-[(2-oxo-2,3-dihydro-1H-indol-4-yl)amino]nicotinonitrile]: 540 nM.
Take `Cc1c(Nc2c(C#N)cncc2-c2cccc(-c3ccc(C(=O)NCCCCO)cc3)c2)ccc2[nH]ccc12` [Compound 309, 3′-{5-cyano-4-[(4-methyl-1H-indol-5-yl)amino]pyridin-3-yl}-N-(4-hydroxybutyl)biphenyl-4-carboxamide]: the IC50 came out at 120 nM.
In the case of `Cc1c(Nc2c(C#N)cncc2-c2ccc(OCCN3CCCN(C)CC3)cc2)ccc2[nH]ccc12` [Compound 426, 5-{4-[2-(4-methyl-1,4-diazepan-1-yl)ethoxy]phenyl}-4-[(4-methyl-1H-indol-5-yl)amino]nicotinonitrile], the IC50 is 13 nM.
`COc1ccc(-c2cncc(C#N)c2Nc2ccc3[nH]ccc3c2C)cc1OCCN1CCN(C)CC1` [Compound 343, 5-{4-methoxy-3-[2-(4-methylpiperazin-1-yl)ethoxy]phenyl}-4-[(4-methyl-1H-indol-5-yl)amino]nicotinonitrile]: the half-inhibitory concentration (IC50) was found to be 10 nM.
The same measure for `COc1ccc(-c2cncc(C#N)c2Nc2ccc3[nH]ccc3c2)cc1OCCNCCc1ccccn1` [Compound 251, 4-(1H-indol-5-ylamino)-5-(4-methoxy-3-{2-[(2-pyridin-2-ylethyl)amino]ethoxy}phenyl)nicotinonitrile]: 40 nM; for `Cc1c(Nc2c(C#N)cncc2-c2cccc3ncccc23)ccc2[nH]ccc12` [Compound 592, 4-(4-methyl-1H-indol-5-ylamino)-5-(quinolin-5-yl)nicotinonitrile]: 6.9 nM.
